By IC50 is commonly meant the concentration that gives 50% inhibition. High values mean a need for much substance, low ones inhibition by little substance.

This assay can be described thus: Inhibitory activity against rice Alpha-galactosidase.

`OCC1=NO[C@H]2[C@H](O)C(O)O[C@@H]12` (stereo partly drawn) [(3aS,6S,6aS)-3-Hydroxymethyl-3a,5,6,6a-tetrahydro-furo[2,3-d]isoxazole-5,6-diol] had a half-maximal inhibitory concentration (IC50) of 805 µM.

Values taken from BindingDB's records for doi:10.1016/s0960-894x(98)00722-7 (Institut De Chimie Organique De L'Universit&#233, 1999).
